The values that follow come from PubChem BioAssay (NCI).

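All cell lines were grown in 96-well plates and treated with compound for 48 hours. TGI marks complete inhibition of growth.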 A value given as a limit tells only on which side of the number the result lay.

Among the test systems are 786-0 renal; HCT-15 colon; HL-60(TB) leukemia; MALME-3M melanoma; NCI-H522 lung; OVCAR-8 ovarian; RPMI-8226 leukemia; SF-268 CNS; SF-295 CNS; TK-10 renal; SF-539 CNS; HOP-92 NSCLC.
What all share (assay): NCI-60 cell line screen, 48 h

With `CCn1cc2c(=O)n3ncn(-c4ccc(Br)cc4)c3nc2n1`, the TGI in the test on 786-0 renal, in the test with HCT-15 colon, with HL-60(TB) leukemia, in the test with MALME-3M melanoma, in the test on NCI-H522 lung and in the test with OVCAR-8 ovarian was more than 100 µM each time. Also, the TGI with RPMI-8226 leukemia, in the test on SF-268 CNS, with SF-295 CNS and in the test on TK-10 renal was more than 100 µM throughout.

Take `O=C1/C(=C\c2ccc(Cl)cc2)N=C(c2ccccc2)N1n1c(=O)cn[nH]c1=S`: the TGI was 39.7 µM in the test with 786-0 renal; 69.5 µM in the test with HCT-15 colon; 64.6 µM with HL-60(TB) leukemia; more than 100 µM in the test with MALME-3M melanoma; 37.2 µM with NCI-H522 lung; 45.8 µM in the test on OVCAR-8 ovarian. For the same compound, the values for the TGI in the test with RPMI-8226 leukemia, in the test on SF-295 CNS and in the test on SF-539 CNS were 62.1 µM, more than 100 µM and more than 100 µM, respectively.

In the case of `O=c1ccc2ccc(OP(=O)(O)O)cc2o1`, the TGI in the test on 786-0 renal, in the test with HCT-15 colon, in the test with HL-60(TB) leukemia, in the test on MALME-3M melanoma, with NCI-H522 lung and in the test with OVCAR-8 ovarian was more than 100 µM throughout. The TGI in the test on RPMI-8226 leukemia, with SF-268 CNS, in the test on SF-295 CNS, in the test with SF-539 CNS and in the test on TK-10 renal was more than 100 µM each time.

As for `COc1cc(/C=C2\C(=O)N(C(=O)Cc3ccccc3)N=C2C)cc(OC)c1OC`, the TGI with 786-0 renal, in the test on HCT-15 colon, with HL-60(TB) leukemia, in the test with MALME-3M melanoma, in the test with NCI-H522 lung and with OVCAR-8 ovarian was more than 100 µM each time. Further, the TGI in the test with RPMI-8226 leukemia, with SF-268 CNS, in the test with SF-295 CNS, in the test on SF-539 CNS and in the test on TK-10 renal was more than 100 µM each time.

As for `O=C1C2C(C(=O)N1c1ccccc1)C1(c3ccccc3)CCC2(C(=O)c2ccccc2)O1` (centres undefined), the TGI in the test with 786-0 renal, with HCT-15 colon, in the test with HL-60(TB) leukemia, with MALME-3M melanoma, in the test with NCI-H522 lung and with OVCAR-8 ovarian was more than 10 µM throughout. In addition, the TGI with RPMI-8226 leukemia, with SF-268 CNS, in the test on SF-295 CNS, in the test on SF-539 CNS and with TK-10 renal was more than 10 µM each time.

For the compound `O=c1nc2n3c4c(cccc4nc-2c(=O)[nH]1)CCC3`, the TGI in the test on 786-0 renal was more than 100 µM; with HCT-15 colon, more than 100 µM; in the test on HL-60(TB) leukemia, more than 100 µM; in the test on MALME-3M melanoma, 39.2 µM; with NCI-H522 lung, 71.4 µM; in the test with OVCAR-8 ovarian, more than 100 µM. For the same compound, the TGI in the test with RPMI-8226 leukemia, in the test with SF-268 CNS, in the test with SF-295 CNS, in the test on SF-539 CNS and with TK-10 renal was more than 100 µM throughout.

With `Cc1ccc(CC2(C(=O)O)Cc3ccc(C)cc3C2)cc1` (centres undefined), the TGI with 786-0 renal, in the test with HCT-15 colon, in the test on HL-60(TB) leukemia, with MALME-3M melanoma, with NCI-H522 lung and in the test with OVCAR-8 ovarian was more than 100 µM throughout. The TGI with RPMI-8226 leukemia, in the test on SF-268 CNS, in the test on SF-295 CNS, in the test with SF-539 CNS and in the test on TK-10 renal was more than 100 µM in each case.

Take `COc1ccc2c3c1OC1C(F)C=CC4(O)C(C2)NCCC314` (centres undefined): the TGI with 786-0 renal was 3.27 µM; in the test with HCT-15 colon it was 11.1 µM; in the test on HOP-92 NSCLC, 20.2 µM; with MALME-3M melanoma, 5.56 µM; in the test with NCI-H522 lung it was 2.02 µM; in the test with OVCAR-8 ovarian, 14.7 µM. The figures for the TGI with SF-268 CNS, in the test with SF-295 CNS and with TK-10 renal were 6.93 µM, 21.9 µM and 12.8 µM, respectively.

Turning to `CCOCCOCCOCc1nc(C#N)c(N)o1`, the TGI in the test with 786-0 renal, with HCT-15 colon, in the test on HL-60(TB) leukemia, with NCI-H522 lung, in the test with OVCAR-8 ovarian and in the test on RPMI-8226 leukemia was more than 100 µM throughout. Also, the TGI with SF-268 CNS, in the test on SF-295 CNS, in the test on SF-539 CNS and in the test on TK-10 renal was more than 100 µM throughout.

As to `COc1cc(C2C(Cl)C(=O)N2NC(=O)Cc2ccccc2)cc(Br)c1O` (centres undefined), the TGI in the test with 786-0 renal, in the test with HCT-15 colon, in the test on HL-60(TB) leukemia, with MALME-3M melanoma, in the test on NCI-H522 lung and with OVCAR-8 ovarian was more than 100 µM in each case. Besides, the TGI with RPMI-8226 leukemia, in the test on SF-268 CNS, in the test with SF-295 CNS and in the test with TK-10 renal was more than 100 µM throughout.

As to `C=CCN(c1cc(OC)c(NC(C)=O)cc1[N+](=O)[O-])S(C)(=O)=O`, the TGI with 786-0 renal is more than 100 µM; with HCT-15 colon, more than 100 µM; in the test with HL-60(TB) leukemia it was more than 100 µM; with MALME-3M melanoma it was 68.5 µM; in the test on NCI-H522 lung it was 12.5 µM; in the test on OVCAR-8 ovarian, more than 100 µM. The TGI in the test on RPMI-8226 leukemia, in the test on SF-268 CNS, in the test on SF-295 CNS and in the test on TK-10 renal was more than 100 µM in each case.

`CC(=O)OC[C@H]1CN(OC(C)=O)C[C@@H](n2cc(C)c(=O)[nH]c2=O)O1`: the TGI in the test on 786-0 renal, with HCT-15 colon, with HL-60(TB) leukemia, in the test on OVCAR-8 ovarian, in the test with RPMI-8226 leukemia and in the test with SF-268 CNS was more than 100 µM each time. Moreover, the TGI in the test on SF-295 CNS, in the test on SF-539 CNS and in the test on TK-10 renal was more than 100 µM each time.

As for `O=c1oc2ccc3ccccc3c2cc1-c1nnc(Nc2ccccc2)s1`, the TGI in the test with 786-0 renal is 31.6 µM; in the test on HCT-15 colon, more than 100 µM; with NCI-H522 lung, 69.3 µM; with RPMI-8226 leukemia, 50.9 µM; in the test with SF-268 CNS, more than 100 µM; in the test on SF-295 CNS it was 83.3 µM. In the test with TK-10 renal, this compound displayed a TGI of 32.1 µM.
